Experimental findings from patent publication US20070049518A1, “Novel method of treatment of inflammatory skin conditions” (priority 2005, published 2007) are described below.

Structures are written as SMILES.

Assay [1] has as its target T1, purified aureolysin type II (Staphylococcus aureus, UniProt P81177).
T1 sequence (P81177 1-509): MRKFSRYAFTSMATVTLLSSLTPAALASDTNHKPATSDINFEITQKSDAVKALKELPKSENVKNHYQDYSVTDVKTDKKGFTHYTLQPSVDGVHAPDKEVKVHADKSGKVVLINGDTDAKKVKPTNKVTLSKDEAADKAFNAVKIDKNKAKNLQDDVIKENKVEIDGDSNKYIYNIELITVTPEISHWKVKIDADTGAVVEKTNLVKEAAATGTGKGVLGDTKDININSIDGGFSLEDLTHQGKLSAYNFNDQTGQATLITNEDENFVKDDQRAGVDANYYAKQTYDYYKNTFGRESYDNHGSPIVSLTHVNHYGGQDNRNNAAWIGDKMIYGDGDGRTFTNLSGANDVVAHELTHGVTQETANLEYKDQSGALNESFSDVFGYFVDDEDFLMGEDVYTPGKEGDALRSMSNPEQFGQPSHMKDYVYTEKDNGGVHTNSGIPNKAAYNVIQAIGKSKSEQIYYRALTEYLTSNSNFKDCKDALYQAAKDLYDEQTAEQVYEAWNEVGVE
Description: Aureolysin enzyme inhibition assay, type II. In kind it is biochemical. The settings on record: pH 6.8, 37° C., 1 hour; read-out: IC50 value Aureolysin type II.

The target in assay [2] is T2, human MMP-2 (Homo sapiens, UniProt P08253).
T2 construct: purchased Calbiochem
T2 sequence (P08253 110-660): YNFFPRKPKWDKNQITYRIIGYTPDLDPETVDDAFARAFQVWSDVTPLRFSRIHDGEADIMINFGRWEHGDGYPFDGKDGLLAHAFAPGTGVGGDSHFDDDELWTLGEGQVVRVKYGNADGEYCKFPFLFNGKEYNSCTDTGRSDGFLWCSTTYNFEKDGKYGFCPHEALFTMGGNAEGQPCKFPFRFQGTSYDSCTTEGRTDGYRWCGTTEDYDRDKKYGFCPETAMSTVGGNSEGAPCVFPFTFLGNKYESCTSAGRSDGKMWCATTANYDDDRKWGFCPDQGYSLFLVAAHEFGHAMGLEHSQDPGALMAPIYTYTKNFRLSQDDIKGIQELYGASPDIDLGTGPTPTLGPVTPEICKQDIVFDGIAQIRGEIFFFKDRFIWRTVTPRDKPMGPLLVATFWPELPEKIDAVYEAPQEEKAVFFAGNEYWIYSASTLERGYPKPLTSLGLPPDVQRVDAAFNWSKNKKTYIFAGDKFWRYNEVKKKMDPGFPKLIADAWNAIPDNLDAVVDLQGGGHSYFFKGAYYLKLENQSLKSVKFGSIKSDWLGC
Description: MMP enzyme inhibition assay, MMP-2. The settings on record: pH 7.5, 37° C., 1 hour. In kind it is biochemical.

For assay [3], the target named is T3, purified aureolysin type I (Staphylococcus aureus, UniProt P81177).
T3 construct: purchased BioCentrum Ltd
Kind of assay: biochemical.

In assay [4] the target is T4, recombinant human kallikrein 5 (Homo sapiens, UniProt Q9Y337).
T4 construct: purchased R&D Systems Inc
Description: Selectivity profile, kallikrein 5. As to conditions: read-out: inhibition at 0.1 mM, Kallikrein 5. In kind it is biochemical. As for the experimental part:
Inhibitory activity was tested in reaction mixtures (0.1 ml) containing 2% (v/v) DMSO vehicle±compound plus additions as follows. V8 protease: 90 mM MOPS (sodium) buffer pH 7.0, […] calcium chloride, 0.045% Brij 35, 10 μM Mca-Leu-Glu-Val-Asp-Gly-Trp-Lys(Dnp)-amide (Bachem) and V8 (BioCentrum Ltd; 30 ng). Staphopain A and B: 90 mM MOPS (sodium) buffer pH 7.0, 1.8 mM cysteine-HCl (pH-adjusted with NaOH), 0.045% Brij 35, 0.1 mM Z-Phe-Arg-AMC hydrochloride (Bachem) and staphopain A or B (BioCentrum Ltd; 30 ng). Human kallikrein 5: 0.1M sodium phosphate buffer pH 8.0, 0.045% Brij 35, 0.1 mM Boc-Val-Pro-Arg-AMC (Sigma) and recombinant human kallikrein 5 (R&D Systems Inc; 6 ng). Human kallikrein 7: 72 mM Tris-HCl pH 8.0, 0.033% Brij 35, 1.2 mM S-2586 (Chromogenix Instrumentation Laboratory SpA) and recombinant human kallikrein 7 (R&D Systems Inc; 0.6 μg) that had been thermolysin-activated according to the manufacturer's instructions. Human angiotensin-converting enzyme (ACE): 45 mM MES (sodium) buffer pH 6.5, 0.045% Brij 35, 10 μM Mca-[…]Dnp)-OH(R&D Systems Inc) and recombinant human ACE (R&D Systems Inc; 1.3 ng). Human cathepsin D: 0.1M sodium acetate buffer pH 3.5, 0.2M sodium chloride, 0.045% Brij 35, 10 μM Mca-Pro-Leu-Gly-Leu-Dap(Dnp)-Ala-Arg-amide (Bachem) and recombinant human cathepsin D (R&D Systems Inc; 8 ng) activated according to the manufacturer's instructions. […]

T4 sequence (Q9Y337 23-293): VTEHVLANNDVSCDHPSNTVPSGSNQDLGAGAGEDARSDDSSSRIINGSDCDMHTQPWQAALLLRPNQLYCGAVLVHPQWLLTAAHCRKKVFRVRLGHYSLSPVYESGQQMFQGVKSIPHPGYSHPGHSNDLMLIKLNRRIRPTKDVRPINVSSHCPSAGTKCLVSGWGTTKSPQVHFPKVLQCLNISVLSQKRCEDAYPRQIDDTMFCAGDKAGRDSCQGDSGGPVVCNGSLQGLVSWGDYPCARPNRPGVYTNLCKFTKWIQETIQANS

By IC50 is commonly meant the concentration needed to halve the response being measured. In general, inhibition refers to the share of the control response that was lost under treatment. With `CNC(=O)[C@@H](NC(=O)[C@H](CC(=O)NO)CC(C)C)C(C)(C)C` [Compound 12, (S)—N1-((S)-3,3-dimethyl-1-(methylamino)-1-oxobutan-2-yl)-N4-hydroxy-2-isobutylsuccinamide], the IC50 is 2200 nM in assay [1], 2700 nM in assay [2] and 1300 nM in assay [3]. In assay [4], the inhibition at 100 µM is 0%.
For `CNC(=O)[C@@H](NC(=O)[C@@H](CC(=O)NO)CC(C)C)C(C)(C)C` [Compound 11, (R)—N1-((S)-3,3-dimethyl-1-(methylamino)-1-oxobutan-2-yl)-N4-hydroxy-2-isobutylsuccinamide], the values for the concentration for half-maximal inhibition (IC50) in assay [1], in assay [2] and in assay [3] were 2400 nM, 1.9 nM and 1300 nM, respectively.
